Here are results for 19 compounds from patent US10336746B1, “RAD51 inhibitors” (Cyteir Therapeutics, Inc., priority 2017, dated 2019).

The structures appear in SMILES notation. Read-outs that look alike come from different tables or passages of the source. Where only a bound is given, the exact number is not on record here.

For series [1], the system named is Daudi cell line (AID positive). In words: Primary screening cell killing assay, Daudi cell line (AID positive). The format is cell-based. The settings on record: Homo sapiens, 168 h, cell death on Day 7, Cell-Titer Glo. On the procedure: Primary screening was a phenotypic screen that utilized the synthetic lethal interaction between AID and RAD51 to identify compounds that were both potent and on target. AID expressing cells are dependent upon RAD51 for survival; inhibiting RAD51 in AID positive cells results in a cytotoxic effect.
The first step was to set up a cell killing assay in the Daudi cell line (AID positive). A 96 well u-bottom plate was prepared by writing the experiment number, plate number, date and initials in the top right corner of the plate lid. With a sterile 300 ml reservoir, and 25 ml serological pipette, evaporation buffer media was pipetted into reservoir in 25 ml increments. Using the liquid handler, 150 ul of evaporation buffer media was pipetted from reservoir into rows A and H, and Columns 1 and 12 of the 96 well u-bottom plate. Cell cultures were counted to obtain the density of cells per ml, and the culture viability. The cell density information was used to obtain 1,000,000 cells from culture using a 5 mL serological pipette into an epi tube. The cell density information from the culture was used to calculate the number of cells and volume of media needed for the assay to seed 1250 cells in 130 ul of media per available culture well in the 96 well u-bottom plate. Rows B through F were used for cells (50 wells in total), with row G left for an empty media control. The calculation was overestimated by 10 mL to account for the dead volume in the 300 ml reservoir. Once the media volume was calculated, the appropriate volume of media was pipetted in 25 mL increments into the 250 mL bottle using a 25 mL serological pipette. The 250 ml bottle was capped tightly, and placed into a 37° C. water bath for 2 minutes. While the culture media was warming, 10 mL of fresh media was pipetted from the 500 mL culture media bottle into a sterile 25 mL reservoir. Using the Eppendorf multichannel pipette, 130 ul of media was pipetted from the 25 mL reservoir into row G of the 96 well u-bottom plate. Once the 250 mL bottle of media was warmed, the volume of culture needed was pipetted into the bottle, and mixed gently with a 25 mL serological pipette as to not create bubbles, and then the contents of the bottle were pipetted into a new 300 mL reservoir. Using the liquid handler, 130 ul of culture was pipetted from the 300 mL reservoir into rows B through F of the 96 well u-bottom plate. Once the culture was added, the plate was placed into a 37° C. incubator until the compound master plate was prepared for use.
Two 96 well u-bottom plates were prepared by writing the master plate name in the upper right corner of the plate lid. Labeling one DMSO master and the other Media Master. The compounds of interest were obtained from the laboratory freezer, and placed into a 25 well storage box with a lid, and set the box aside. The compounds were vortexed after thawing but before use. Using an automatic multichannel pipette, 20 ul of 100% DMSO was pipetted into wells B3-B11 through G3-G11 of the DMSO master plate. For each compound on the master plate, 50 ul of the compound were pipetted in the appropriate well of row 2 (reference plate map to determine appropriate well). A serial dilution was prepared beginning by aspirating 20 ul from row 2 and mixing with row 3, repeating until row 11 was reached. Using the liquid handler, 194 ul of Daudi media was dispensed into wells B2-B11 through G2-G11 of the Media master plate. Using the liquid handler, 6 ul from the DMSO master plate was aspirated and dispensed into the media master plate, mixing 100 ul twice.
Compounds from master plate were then added to the culture plate. The culture plates were removed from the incubator, and set inside the biosafety cabinet. Using a liquid handler, 20 ul from wells B2 to B11 through G2 to G11 of master plate were aspirated, and dispensed into wells B2 to B11 through G2 to G11 of culture plate. This set was continued with each culture plate. […]

A short description of series [2]: Bi-directional Caco-2 permeability. The settings on record: human. The format is in vitro ADME. On the procedure: Bi-directional Caco-2 permeability was assayed. Caco-2 cells were seeded onto permeable polycarbonate supports and allowed to differentiate for about 3 weeks prior to being used in the assays. The cells were then exposed to the compounds from either the apical or basolateral sides and incubated at 37 C for up to 90 minutes under light agitation. Compound transport was then measured using LC/MS/MS analysis at 30, 60, and 90 minutes.

In the case of `CC(C)OC(=O)Nc1ccc(-c2cnc([C@H]3CC[C@@H](NC(=O)OC(C)C)CC3)s2)c(S(=O)(=O)NC(C)(C)C)c1` [Ex. 67B, cis-isopropyl N-[3-(tert-butylsulfamoyl)-4-[2-[4-(isopropoxycarbonylamino)cyclohexyl]thiazol-5-yl]phenyl]carbamate], the EC50 in series [1] was more than 1 µM.
The same measure, in the same setting: as for `CC(C)OC(=O)N1CCN(c2ncc(-c3ccc(NC(=O)OCc4ccccc4)cc3S(=O)(=O)NC(C)(C)C)s2)CC1` [Ex. 6, isopropyl 4-[5-[4-(benzyloxycarbonylamino)-2-(tert-butylsulfamoyl)phenyl]thiazol-2-yl]piperazine-1-carboxylate], the figure is more than 1 µM.
Compound `CC(C)OC(=O)N[C@H]1CC[C@H](c2ncc(-c3ccc(NC(=O)OC[C@@H]4CCCN4C)cc3S(=O)(=O)NC(C)(C)C)s2)CC1` [Ex. 35, isopropyl ((1S,4r)-4-(5-(2-(N-(tert-butyl)sulfamoyl)-4-(((((S)-1-methylpyrrolidin-2-yl)methoxy)carbonyl)amino)phenyl)thiazol-2-yl)cyclohexyl)carbamate] showed a half-maximal effective concentration (EC50) in series [1] of 0.1 to 1 µM. Further, the recovery at 90 min came to 98.8% in series [2] (Caco-2, Caco-2, AB direction, read-out: AB Recovery %) and 108% in series [2] (Caco-2, Caco-2, BA direction, read-out: BA Recovery %). Moreover, in series [2] (Caco-2, read-out: BA/AB Ratio), the efflux ratio at 90 min stood at 99.1. In addition, in series [2] (Caco-2, apical to basolateral, 37 C, up to 90 minutes, read-out: AB Papp (cm/sec × 10^6)), the Papp A→B at 90 min came to 4 nm/s. Also, in series [2] (Caco-2, basolateral to apical, 37 C, up to 90 minutes, read-out: BA Papp (cm/sec × 10^6)), the Papp B→A at 90 min came to 410 nm/s.
With `CC(C)OC(=O)NC1CCC(c2ncc(-c3ccc(NC(=O)OC[C@@H]4CCCN4)cc3S(=O)(=O)NC(C)(C)C)s2)CC1` (stereo partly drawn) [Ex. 37, isopropyl ((1S,4r)-4-(5-(2-(N-(tert-butyl)sulfamoyl)-4-(((((S)-pyrrolidin-2-yl)methoxy)carbonyl)amino)phenyl)thiazol-2-yl)cyclohexyl)carbamate], in series [1], the EC50 was 0.1 to 1 µM.
Compound `CC(C)OC(=O)N[C@H]1CC[C@@H](c2ncc(-c3ccc(NC(=O)NCc4ccccc4)cc3S(=O)(=O)NC(C)(C)C)s2)CC1` [Ex. 66B, cis-isopropyl N-[4-[5-[4-(benzylcarbamoylamino)-2-(tert-butylsulfamoyl)phenyl]thiazol-2-yl]cyclohexyl]carbamate] yielded a concentration for a half-maximal effect (EC50) in series [1] of 0.1 to 1 µM.
`COc1cc(NC(=O)OC(C)C)cnc1-c1ncc(-c2ccc(NC(=O)OCC3CCNCC3)cc2S(=O)(=O)NC(C)(C)C)s1` [Ex. 56, 4-piperidylmethyl N-[3-(tert-butylsulfamoyl)-4-[2-[5-(isopropoxycarbonylamino)-3-methoxy-2-pyridyl]thiazol-5-yl]phenyl]carbamate] came in with an EC50 in series [1] of 0.1 to 1 µM.
As to `CN1CCC[C@@H]1COC(=O)Nc1ccc(-c2cnc(N3CCC(OC(=O)NCc4ccccc4)CC3)s2)c(S(=O)(=O)NC(C)(C)C)c1` [Ex. 2, [1-[5-[2-(tert-butylsulfamoyl)-4-[[(2R)-1-methylpyrrolidin-2-yl]methoxycarbonylamino]phenyl]thiazol-2-yl]-4-piperidyl] N-benzylcarbamate], the EC50 in series [1] was more than 1 µM.
Compound `CC(C)OC(=O)NC1CCN(c2ncc(-c3ccc(NC(=O)NCc4ccccc4)cc3S(=O)(=O)NC(C)(C)C)s2)CC1` [Ex. 68, isopropyl N-[1-[5-[4-(benzylcarbamoylamino)-2-(tert-butylsulfamoyl)phenyl]thiazol-2-yl]-4-piperidyl]carbamate] displayed an EC50 in series [1] of 0.1 to 1 µM.
Same read-out and setting: as for `CC(C)OC(=O)NC1CCC(c2ncc(-c3ccc(NC(=O)OC[C@H]4CCCN4)cc3S(=O)(=O)NC(C)(C)C)s2)CC1` (stereo partly drawn) [Ex. 36, isopropyl ((1R,4r)-4-(5-(2-(N-(tert-butyl)sulfamoyl)-4-(((((R)-pyrrolidin-2-yl)methoxy)carbonyl)amino)phenyl)thiazol-2-yl)cyclohexyl)carbamate], the figure is 0.1 to 1 µM.
`CN1CCC[C@H]1COC(=O)N[C@H]1CC[C@H](c2ncc(-c3ccc(NC(=O)NCc4ccccc4)cc3S(=O)(=O)NC(C)(C)C)s2)CC1` [Ex. 12, ((S)-1-methylpyrrolidin-2-yl)methyl ((1r,4S)-4-(5-(4-(3-benzylureido)-2-(N-(tert-butyl)sulfamoyl)phenyl)thiazol-2-yl)cyclohexyl)carbamate]: the EC50 in series [1] lay in the range of 0.1 to 1 µM.
As to `CC(C)OC(=O)N[C@H]1CC[C@H](c2ncc(-c3ccc(NC(=O)NCc4cccnc4)cc3S(=O)(=O)NC(C)(C)C)s2)CC1` [Ex. 25, isopropyl ((1r,4r)-4-(5-(2-(N-(tert-butyl)sulfamoyl)-4-(3-(pyridin-3-ylmethyl)ureido)phenyl)thiazol-2-yl)cyclohexyl)carbamate], the EC50 in series [1] is not above 0.1 µM.
Same read-out and setting: the result for `CC(C)OC(=O)N[C@H]1CC[C@H](c2ncc(-c3ccc(NC(=O)NCc4ccc(F)cc4)cc3S(=O)(=O)NC(C)(C)C)s2)CC1` [Ex. 23, isopropyl ((1r,4r)-4-(5-(2-(N-(tert-butyl)sulfamoyl)-4-(3-(4-fluorobenzyl)ureido)phenyl)thiazol-2-yl)cyclohexyl)carbamate] reads not above 0.1 µM; that for `CN1CCC[C@@H]1COC(=O)NC1CCC(c2ncc(-c3ccc(NC(=O)NCc4ccccc4)cc3S(=O)(=O)NC(C)(C)C)s2)CC1` (stereo partly drawn) [Ex. 11, [(2R)-1-methylpyrrolidin-2-yl]methyl N-[4-[5-[4-(benzylcarbamoylamino)-2-(tert-butylsulfamoyl)phenyl]thiazol-2-yl]cyclohexyl]carbamate], 0.1 to 1 µM; that for `CC(C)OC(=O)N[C@H]1CC[C@H](c2ncc(-c3ccc(NC(=O)OCC4CCNCC4)cc3S(=O)(=O)NC(C)(C)C)s2)CC1` [Ex. 33, trans-4-piperidylmethyl N-[3-(tert-butylsulfamoyl)-4-[2-[4-(isopropoxycarbonylamino)cyclohexyl]thiazol-5-yl]phenyl]carbamate], more than 1 µM.
In series [1], `CC(C)OC(=O)Nc1ccc(-c2cnc(N3CCC(NC(=O)OC(C)C)CC3)s2)c(S(=O)(=O)NC(C)(C)C)c1` [Ex. 69, isopropyl N-[1-[5-[2-(tert-butylsulfamoyl)-4-(isopropoxycarbonylamino)phenyl]thiazol-2-yl]-4-piperidyl]carbamate] came in with an EC50 of more than 1 µM.
In series [1], `CC(C)OC(=O)Nc1ccc(-c2cnc(C3CCC(NC(=O)OC[C@H]4CCCN4C)CC3)s2)c(S(=O)(=O)NC(C)(C)C)c1` (stereo partly drawn) [Ex. 8, [(2R)-1-methylpyrrolidin-2-yl]methyl N-[4-[5-[2-(tert-butylsulfamoyl)-4-(isopropoxycarbonylamino)phenyl]thiazol-2-yl]cyclohexyl]carbamate] returned an EC50 of more than 1 µM.
`CN1CCC[C@H]1COC(=O)Nc1ccc(-c2cnc(N3CCC(OC(=O)NCc4ccccc4)CC3)s2)c(S(=O)(=O)NC(C)(C)C)c1` [Ex. 1, (S)-(1-methylpyrrolidin-2-yl)methyl (4-(2-(4-((benzylcarbamoyl)oxy)piperidin-1-yl)thiazol-5-yl)-3-(N-(tert-butyl)sulfamoyl)phenyl)carbamate] displayed a concentration giving a half-maximal response (EC50) in series [1] of more than 1 µM.
Consider `CC(C)OC(=O)Nc1ccc(-c2cnc(C3CCC(NC(=O)OC[C@@H]4CCCN4C)CC3)s2)c(S(=O)(=O)NC(C)(C)C)c1` (stereo partly drawn) [Ex. 9, isopropyl (3-(N-(tert-butyl)sulfamoyl)-4-(2-((1S,4r)-4-(((((S)-1-methylpyrrolidin-2-yl)methoxy)carbonyl)amino)cyclohexyl)thiazol-5-yl)phenyl)carbamate], for which, in series [1], the EC50 is 0.1 to 1 µM.
In series [1], `CC(C)OC(=O)N[C@H]1CC[C@H](c2ncc(-c3ccc(NC(=O)NCc4ccncc4)cc3S(=O)(=O)NC(C)(C)C)s2)CC1` [Ex. 22, trans-isopropyl N-[4-[5-[2-(tert-butylsulfamoyl)-4-(4-pyridylmethylcarbamoylamino)phenyl]thiazol-2-yl]cyclohexyl]carbamate] showed a concentration giving a half-maximal response (EC50) of 0.1 to 1 µM.
